Drawing on US9102628B2, “Derivatives of pyrazole 3,5-carboxylates, their preparation and their application in therapeutics” (SANOFI, priority 2007, dated 2015), this text covers IC50 for two compounds.

The test addresses T1, human recombinant soluble enzyme BACE1 (Homo sapiens, UniProt P56817).
T1 construct: purchased R&D Systems 931-AS
The experiment in a line: Test 1: Inhibition of soluble BACE1 (synthetic substrate S-10-R, HPLC/UV detection of cleavage product). It is filed as biochemical. The following applies: BACE1 20 nM, substrate S-10-R 350 μM, 1 hour at 37° C., sodium acetate/acetic acid buffer pH 4.5, 10% DMSO. From the text: Test 1: Inhibition of Soluble BACE1
This test uses soluble BACE1 and a synthetic substrate of BACE1.
The human recombinant soluble enzyme BACE1 is available from R&D Systems (reference 931-AS).
The synthetic peptide, made up of the amino acid sequence Ser-Glu-Val-Asn-Leu-Asp-Ala-Glu-Phe-Arg (S-10-R, available from NeoMPS, reference SP000122), is used as synthetic substrate of BACE1.
This synthetic substrate incorporates the cleavage site of BACE1 and fluorescent or chromogenic groups, so that the cleavage products can then be detected, either with UV after separation by HPLC, or by measurement of fluorescence or of optical density. In the present case, the cleavage product Asp-Ala-Glu-Phe-Arg, released during hydrolysis of S-10-R by BACE1, is quantified by UV detection [195 nm] after separation by HPLC with a gradient of acetonitrile from 2% to 100% [HP1100, Agilent; Column Atlantis dC18 (5 mm×2.1 mm; 3 μm)]. […]
The percentage inhibition of the activity of BACE1 by the compounds of the invention is determined as a function of the amount of cleavage product detected by HPLC: the smaller the amount of cleavage product detected, the greater the inhibitory activity of the compounds.
The values of IC50 are then calculated from the percentage inhibition previously determined, in relation to the concentration of the test compounds.

Each structure is given as a SMILES string.

T1 sequence (P56817 46-457 limits assumed): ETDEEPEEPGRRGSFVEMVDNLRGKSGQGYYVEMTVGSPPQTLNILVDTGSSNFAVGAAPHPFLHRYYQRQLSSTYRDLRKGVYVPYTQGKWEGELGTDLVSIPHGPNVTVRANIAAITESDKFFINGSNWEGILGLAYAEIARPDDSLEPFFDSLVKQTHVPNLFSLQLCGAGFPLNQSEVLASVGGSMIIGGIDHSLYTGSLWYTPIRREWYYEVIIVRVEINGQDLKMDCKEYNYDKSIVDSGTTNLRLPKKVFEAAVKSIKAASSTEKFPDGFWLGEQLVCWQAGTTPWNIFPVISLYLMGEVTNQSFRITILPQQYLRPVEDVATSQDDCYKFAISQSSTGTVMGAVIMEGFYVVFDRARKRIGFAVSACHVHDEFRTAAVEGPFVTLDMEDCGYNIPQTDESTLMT

By IC50 is commonly meant the point on the concentration scale where inhibition reaches its midpoint. In the case of `CCCC1CCCCN1C(=O)c1cc(C(=O)N[C@@H](Cc2cc(F)cc(F)c2)[C@H](O)CNC2(c3cccc(C(F)(F)F)c3)CC2)nn1CC` (stereo partly drawn) [compound 53, N-{(1S,2R)-1-(3,5-difluorobenzyl)-2-hydroxy-3-({1-[3-(trifluoromethyl)phenyl]cyclopropyl}amino)propyl}-1-ethyl-5-[(2-propylpiperidin-1-yl)carbonyl]-1H-pyrazole-3-carboxamide], the IC50 came out at 73 nM.

In the case of `CCN(Cc1ccccc1)NC(=O)c1cc(C(=O)N[C@@H](Cc2ccccc2)[C@H](O)CNCc2cccc(C(F)(F)F)c2)nn1CC` [compound 69, 5-[(2-benzyl-2-ethylhydrazino)carbonyl]-N-[(1S,2R)-1-benzyl-2-hydroxy-3-{[3-(trifluoromethyl)benzyl]amino}propyl]-1-ethyl-1H-pyrazole-3-carboxamide], the IC50 amounted to 2000 nM.
